These results are taken from PubChem BioAssay AID686920 (Broad Institute, 2013).

The source made the active and inactive calls.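 How the source made its calls: active means fitted curve reaching 35% inhibition at a dose no higher than twice the top valid tested dose; inconclusive means flat fit with 30 to 70% inhibition, or a poor fit; inactive means the rest, including activity in the opposite direction.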 Some results are limits rather than exact numbers.

The test has as its system A673 NR0B1-luciferase reporter, viability-normalised luminescence. Briefly: NR0B1 reporter signal reduction in A673 cells – cell-based, luciferase luminescence, cherry-pick, EWS/Fli inhibitor project, dose response (AID 686920).
On to `Cc1cccc(NC(=O)CN2CCN(C(=O)CNC(=O)c3ccc(-c4ccccc4)cc3)CC2)c1C`, for which the AC35 was 8.14 µM.
The same measure for `Cc1ccc(S(=O)(=O)Nc2ccc3c(c2)C(=O)N([C@H](C)CO)C[C@H](C)[C@@H](CN(C)Cc2ccc(C(F)(F)F)cc2)OCCCC[C@H](C)O3)cc1`: 11.5 µM; for `C[C@@H]1CCCCO[C@H](CN(C)Cc2ccc(C(=O)Nc3ccccc3N)cc2)[C@@H](C)CN([C@H](C)CO)C(=O)c2cc(NS(=O)(=O)c3ccc(F)cc3)ccc2O1`: 5.53 µM; for `CN(C)C(=O)c1cccc(-c2ccc(C3[C@@H]4CN(Cc5nccs5)C[C@H]3N4)cc2)c1` (stereo not given in full): > 68 µM (inactive).
`COC(=O)c1cccc(NC(=O)NC(=O)c2ccc(Cl)cc2)c1`: the AC35 is 0.225 µM.
On to `C[C@@H]1CN([C@@H](C)CO)S(=O)(=O)c2ccc(C#CC(C)(C)O)cc2O[C@H]1CN(C)Cc1ccc(-c2ccccc2)cc1`, for which the AC35 was 2.8 µM.
With `CCCN1C/C(=C/c2ccc3c(c2)OCO3)C(=O)/C(=C/c2ccc3c(c2)OCO3)C1`, the AC35 was 3.4 µM.
The same measure for `CC(C)(C)c1ccc(Oc2ccc(NC(=O)C3CC=CCC3C(=O)O)cc2)cc1` (stereo not given): 40.5 µM.
As to `COc1ccc(-c2cnc3c(NC=O)cc(-c4ccccc4OC)cn23)cc1OC`, the AC35 is 0.065 µM.
As for `COc1ccc(Nc2ncnc3ccc(Br)cc23)c(OC)c1`, the AC35 is 5.94 µM.
The same measure for `O=C(O)c1ccccc1C(=O)Nc1ccc(Oc2ccc3ccccc3c2)cc1`: 5.69 µM; for `O=C(O)c1ccc(N/N=C/c2cc(Br)cs2)cc1`: 7.22 µM; for `CCN1CCN(/C=N/c2nc3c(s2)CCCC3)CC1`: 7.97 µM.
The result for `Cc1nn(Cc2ccccc2Cl)c2sc(C(=O)Nc3ccccc3N3CCOCC3)cc12` reads 10.3 µM; that for `O=C(CN1C(=O)C(=O)c2ccccc21)c1ccc(Cl)cc1`, 34.2 µM; that for `CC(=NNc1ccc2ccccc2n1)c1ccccc1O`, 5.09 µM.
The result for `COc1ccc(/C=C2/SC(=S)N(CCCC(=O)Nc3ccccc3C(=O)O)C2=O)cc1` reads 5.83 µM; that for `Cc1nn(-c2ccc(F)cc2)c2nc(N)c(C#N)c(-c3ccc(O)c(O)c3)c12`, 22.2 µM; that for `O=c1[nH]c(=O)n([C@H]2C[C@H](O)[C@@H](CO)O2)cc1C(F)(F)F`, 3.33 µM.
On to `CCOc1ccc(-c2cc(CCCC(=O)N3CCN(c4ccc(OC)cc4)CC3)no2)cc1`, for which the AC35 was 27.6 µM.
For the molecule `COC(=O)C[C@@H]1CC[C@@H]2[C@H](COc3ccc(NC(=O)c4cc(C)on4)cc3C(=O)N2C)O1`, the AC35 was 7 µM.
The same measure for `O=C(Nc1ccc(F)cc1)N1CCCCN2[C@@H](CO)[C@H](c3ccc(C4=CCCCC4)cc3)[C@@H]2C1`: 13.3 µM; for `C[C@@H]1O[C@@H](O[C@H]2C[C@@H](O)[C@]3(CO)[C@H]4[C@H](O)C[C@]5(C)[C@@H](C6COC(=O)C6)CC[C@]5(O)[C@@H]4CC[C@]3(O)C2)[C@H](O)[C@H](O)[C@H]1O` (stereo not given in full): 1.24 µM; for `Cc1[nH][nH]c(=O)c1C(c1c(C)[nH][nH]c1=O)c1cn(Cc2ccc(Cl)c(Cl)c2)c2ccccc12`: 4.99 µM.
For the molecule `COC(=O)C1=C(C)N(Cc2cccc(C(F)(F)F)c2)C(=NCc2ccc(OC)cc2)NC1c1cccc(F)c1` (stereo not given), the AC35 was 13.2 µM.
The same measure for `O=C1C(=O)N(Cc2cccs2)c2ccccc21`: 17 µM; for `CC1=NC(=O)C(N=Nc2cccc(C(=O)O)c2)N1c1ccccc1` (stereo not given): 6.99 µM.
In the case of `C[C@H]1CN([C@@H](C)CO)C(=O)Cc2cc(NC(=O)CCCCCC(=O)Nc3ccccc3N)ccc2O[C@H]1CN(C)Cc1ccc(Cl)c(Cl)c1`, the AC35 is 4.68 µM.
In the case of `CC1(C)N=C(N)N=C(N)N1c1ccc(CCCCc2ccccc2)cc1`, the AC35 is 2.72 µM.
`O=C1NC(=S)NC(=O)C1=Cc1cccn1-c1ccc(O)cc1`: the AC35 is 19.9 µM.
The result for `CN(Cc1cnc2nc(N)nc(N)c2n1)c1ccc(C(=O)N[C@@H](CCC(=O)O)C(=O)O)cc1` reads under 0.03 µM; that for `O=C(O)c1ccc(N/N=C/c2c(F)cccc2Cl)cc1`, 4.61 µM; that for `COc1ccccc1-c1ccc(OCCCN2CCC(C(O)(c3ccccc3)c3ccccc3)CC2)cc1`, 13.3 µM.
Take `O=C(CN1C(=O)c2ccccc2S1(=O)=O)c1ccc(F)cc1`: the AC35 is 3.98 µM.
As to `Nc1ccc(-c2cc3ccccc3c(=O)o2)cc1`, the AC35 was 0.485 µM.
The same measure for `CC(=O)N1CCCC(c2cc(C(=O)Nc3ccccc3)no2)C1` (stereo not given): 2.06 µM; for `CN(C)c1ccc(N=Nc2ccccc2Br)cc1`: 21.3 µM; for `COc1cccc(-c2cccc(-c3nc(C(=O)NCC(F)(F)F)cc4c3[C@H](CCO)N([S@@](=O)C(C)(C)C)C4)c2)c1`: 3.19 µM.
The result for `CC(C)(C)c1ccc(Cn2c(=O)cnc3ccccc32)cc1` reads 13.2 µM.
The result for `Cc1c(CC(=O)NCCCC(=O)O)c(=O)oc2cc3c(cc12)CCC(C)(C)O3` reads 2.74 µM; that for `Cc1ccccc1N=CC1=C(O)c2ccccc2C1=O`, 2.72 µM; that for `CCCCCCCCCCCCCCCCn1cc[n+](C)c1`, 10.3 µM.
With `COc1ccc2cc(C(N)=O)/c(=N\NC(=O)c3ccccc3)oc2c1`, the AC35 was 5.91 µM.
The same measure for `COC1C(O)C(C)OC(OC2C(Oc3cccc4c(O)c5c(=O)oc6ccc(C)c7c(=O)oc(c34)c5c67)OC(C)C(O)C2O)C1O` (stereo not given): 4.49 µM; for `N#C[C@H]1[C@H](c2ccc(-c3ccccc3F)cc2)[C@@H](CO)N1C(=O)c1ccccn1`: 9.49 µM; for `COc1ccc(NC(=O)N2CCCCN3[C@@H](CO)[C@H](c4ccc(C5=CCCCC5)cc4)[C@@H]3C2)cc1`: 15.8 µM.
The same measure for `COc1ccc(/C=C2\SC(=S)N(CCCC(=O)NC3CCCC3)C2=O)cc1OC`: 38.5 µM; for `COc1ccc(/C=C(/C(=O)c2cccs2)N2C=CC=CC2=C(C#N)C#N)cc1`: 37.2 µM; for `COc1ccc(Cl)cc1S(=O)(=O)Nc1ccc2c(c1)n(C)c(=O)n2C`: 31.3 µM.
For the molecule `O=C(/C=C/c1cc(Br)ccc1O)c1ccco1`, the AC35 is 10.7 µM.
Take `CC(=O)c1ccc(NC(=O)c2noc3c2CCC3)cc1`: the AC35 was 3.06 µM.
In the case of `C[C@@H]1CCCCO[C@H](CN(C)Cc2ccc(C(=O)Nc3ccccc3N)cc2)[C@@H](C)CN([C@H](C)CO)C(=O)c2cc(NS(=O)(=O)c3ccc(Cl)cc3)ccc2O1`, the AC35 was 5.04 µM.
The same measure for `CN=c1scc(-c2ccccc2F)n1/N=C/c1ccc(O)c(O)c1O`: 15.7 µM; for `C[C@@H]1CN([C@@H](C)CO)C(=O)c2cccc(NS(=O)(=O)c3ccc(Cl)cc3)c2O[C@@H]1CN(C)Cc1ccc(C(=O)Nc2ccccc2N)cc1`: 5.31 µM; for `Cc1ccc(S(=O)(=O)N(C)C[C@H]2Oc3c(cccc3N(C)C)C(=O)N([C@@H](C)CO)C[C@@H]2C)cc1`: 1.62 µM.
`O=C(Nc1ccc(Br)cc1)c1ccc(F)c(S(=O)(=O)N2CCN(c3ccccn3)CC2)c1`: the AC35 is 7.79 µM.
For `CCCCC[C@H](C)N1C[C@H](COCc2ccccc2)Oc2cc(N3CC[C@@H](N(C)C)C3)ccc2S1(=O)=O`, the AC35 is 34.7 µM.
Consider `CN=c1scc(-c2ccccc2F)n1/N=C/c1ccc[nH]1`, for which the AC35 was 0.194 µM.
The result for `C(=Cc1cnc2ccccc2n1)c1ccc2c(c1)OCO2` reads 1.12 µM.
The same measure for `COc1ccc(NC(=O)N2CCCCN3[C@H](CO)[C@H](c4ccc(C#CCC(C)C)cc4)[C@H]3C2)cc1`: 9.98 µM.
